Measurements taken from ChEMBL document CHEMBL3600353, “In Vitro Activity of Epigallocatechin Gallate and Quercetin Alone and in Combination versus Clinical Isolates of Methicillin-Resistant Staphylococcus aureus” (2015).
Active and inactive are the calls of the source. The calls are words filed in the database; no cut-off is given here.

Tests used:
Staphylococcus aureus [1] = assay: Antibacterial activity against methicillin-sensitive Staphylococcus aureus ATCC 25923 at 0.28 mM after 24 hrs by time kill assay in presence of 0.2 mM of quercetin; type: functional, organism-based
Staphylococcus aureus [2] = assay: Antibacterial activity against methicillin-resistant Staphylococcus aureus isolate 3 after 24 hrs by checkerboard assay in presence of quercetin; type: functional
Staphylococcus aureus [3] = assay: Antibacterial activity against methicillin-resistant Staphylococcus aureus isolate 6 by disk diffusion assay; type: functional
Staphylococcus aureus [4] = assay: Antibacterial activity against methicillin-resistant Staphylococcus aureus isolate 6 after 24 hrs by checkerboard assay in presence of quercetin; type: functional
Staphylococcus aureus [5] = assay: Antibacterial activity against methicillin-resistant Staphylococcus aureus isolate 4 assessed as reduction of epigallocatechin gallate MIC after 24 hrs by checkerboard assay in presence of quercetin; type: functional; conditions: isolate 4, 24 h
Staphylococcus aureus [6] = assay: Antibacterial activity against methicillin-resistant Staphylococcus aureus isolate 1 after 24 hrs by checkerboard assay in presence of quercetin; type: functional
Staphylococcus aureus [7] = assay: Antibacterial activity against methicillin-resistant Staphylococcus aureus isolate 2 after 24 hrs by checkerboard assay in presence of quercetin; type: functional
Staphylococcus aureus [8] = assay: Antibacterial activity against vancomycin-intermediate resistant Staphylococcus aureus Mu50 after 24 hrs by checkerboard assay; type: functional; conditions: Mu50, 24 h
Staphylococcus aureus [9] = assay: Antibacterial activity against methicillin-resistant Staphylococcus aureus NCTC 12493 assessed as log reduction of colony forming unit at 0.28 mM after 2 hrs; type: functional, organism-based
Staphylococcus aureus [10] = assay: Antibacterial activity against methicillin-resistant Staphylococcus aureus isolate 9 after 24 hrs by checkerboard assay; type: functional; conditions: isolate 9, 24 h
Staphylococcus aureus [11] = assay: Antibacterial activity against methicillin-resistant Staphylococcus aureus isolate 4 by disk diffusion assay; type: functional
Staphylococcus aureus [12] = assay: Antibacterial activity against methicillin-resistant Staphylococcus aureus NCTC 12493 assessed as reduction of epigallocatechin gallate MIC after 24 hrs by checkerboard assay in presence of quercetin; type: functional; conditions: NCTC 12493, 24 h
Staphylococcus aureus [13] = assay: Antibacterial activity against methicillin-resistant Staphylococcus aureus NCTC 12493 after 24 hrs by time kill assay; type: functional, organism-based
Staphylococcus aureus [14] = assay: Antibacterial activity against Staphylococcus aureus ATCC 25923 assessed as reduction of epigallocatechin gallate MIC after 24 hrs by checkerboard assay in presence of quercetin; type: functional; conditions: ATCC 25923, 24 h
Staphylococcus aureus [15] = assay: Antibacterial activity against methicillin-resistant Staphylococcus aureus isolate 7 by disk diffusion assay; type: functional
Staphylococcus aureus [16] = assay: Antibacterial activity against methicillin-resistant Staphylococcus aureus NCTC 12493 assessed as log reduction of colony forming unit at 0.28 mM after 24 hrs; type: functional, organism-based
Staphylococcus aureus [17] = assay: Antibacterial activity against methicillin-resistant Staphylococcus aureus isolate 5 by disk diffusion assay; type: functional
Staphylococcus aureus [18] = assay: Antibacterial activity against methicillin-sensitive Staphylococcus aureus ATCC 25923 at 0.28 mM after 24 hrs by time kill assay in presence of 0.42 mM of quercetin; type: functional, organism-based
Staphylococcus aureus [19] = assay: Antibacterial activity against methicillin-resistant Staphylococcus aureus isolate 3 assessed as reduction of epigallocatechin gallate MIC after 24 hrs by checkerboard assay in presence of quercetin; type: functional; conditions: isolate 3, 24 h
Staphylococcus aureus [20] = assay: Antibacterial activity against methicillin-resistant Staphylococcus aureus isolate 8 assessed as reduction of epigallocatechin gallate MIC after 24 hrs by checkerboard assay in presence of quercetin; type: functional; conditions: isolate 8, 24 h
Staphylococcus aureus [21] = assay: Antibacterial activity against methicillin-resistant Staphylococcus aureus isolate 6 assessed as reduction of epigallocatechin gallate MIC after 24 hrs by checkerboard assay in presence of quercetin; type: functional; conditions: isolate 6, 24 h
Staphylococcus aureus [22] = assay: Antibacterial activity against vancomycin-intermediate resistant Staphylococcus aureus Mu50 after 24 hrs by time kill assay; type: functional, organism-based
Staphylococcus aureus [23] = assay: Antibacterial activity against methicillin-sensitive Staphylococcus aureus ATCC 25923 at 0.56 mM after 4 hrs by time kill assay; type: functional, organism-based
Staphylococcus aureus [24] = assay: Antibacterial activity against methicillin-resistant Staphylococcus aureus isolate 2 assessed as reduction of epigallocatechin gallate MIC after 24 hrs by checkerboard assay in presence of quercetin; type: functional; conditions: isolate 2, 24 h
Staphylococcus aureus [25] = assay: Antibacterial activity against methicillin-resistant Staphylococcus aureus isolate 1 after 24 hrs by checkerboard assay; type: functional; conditions: isolate 1, 24 h
Staphylococcus aureus [26] = assay: Antibacterial activity against methicillin-sensitive Staphylococcus aureus ATCC 25923 at 0.56 mM after 24 hrs by time kill assay in presence of 0.42 mM of quercetin; type: functional, organism-based
Staphylococcus aureus [27] = assay: Antibacterial activity against methicillin-resistant Staphylococcus aureus NCTC 12493 at 0.28 mM after 24 hrs by time kill assay; type: functional, organism-based
Staphylococcus aureus [28] = assay: Antibacterial activity against methicillin-resistant Staphylococcus aureus isolate 9 after 24 hrs by checkerboard assay in presence of quercetin; type: functional
Staphylococcus aureus [29] = assay: Antibacterial activity against methicillin-resistant Staphylococcus aureus isolate 5 after 24 hrs by checkerboard assay; type: functional; conditions: isolate 5, 24 h
Staphylococcus aureus [30] = assay: Antibacterial activity against methicillin-resistant Staphylococcus aureus isolate 8 by disk diffusion assay; type: functional
Staphylococcus aureus [31] = assay: Antibacterial activity against methicillin-resistant Staphylococcus aureus isolate 2 after 24 hrs by checkerboard assay; type: functional; conditions: isolate 2, 24 h
Staphylococcus aureus [32] = assay: Antibacterial activity against methicillin-resistant Staphylococcus aureus isolate 6 after 24 hrs by checkerboard assay; type: functional; conditions: isolate 6, 24 h
Staphylococcus aureus [33] = assay: Antibacterial activity against methicillin-resistant Staphylococcus aureus isolate 7 after 24 hrs by checkerboard assay; type: functional; conditions: isolate 7, 24 h
Staphylococcus aureus [34] = assay: Antibacterial activity against methicillin-resistant Staphylococcus aureus isolate 7 after 24 hrs by checkerboard assay in presence of quercetin; type: functional
Staphylococcus aureus [35] = assay: Antibacterial activity against methicillin-resistant Staphylococcus aureus isolate 5 assessed as reduction of epigallocatechin gallate MIC after 24 hrs by checkerboard assay in presence of quercetin; type: functional; conditions: isolate 5, 24 h
Staphylococcus aureus [36] = assay: Antibacterial activity against methicillin-resistant Staphylococcus aureus isolate 4 after 24 hrs by checkerboard assay in presence of quercetin; type: functional
Staphylococcus aureus [37] = assay: Antibacterial activity against methicillin-resistant Staphylococcus aureus NCTC 12493 at 0.28 mM after 4 hrs by time kill assay; type: functional, organism-based
Staphylococcus aureus [38] = assay: Antibacterial activity against methicillin-resistant Staphylococcus aureus isolate 5 after 24 hrs by checkerboard assay in presence of quercetin; type: functional
Staphylococcus aureus [39] = assay: Antibacterial activity against vancomycin-intermediate resistant Staphylococcus aureus Mu50 after 24 hrs by checkerboard assay in presence of quercetin; type: functional
Staphylococcus aureus [40] = assay: Antibacterial activity against methicillin-resistant Staphylococcus aureus isolate 4 after 24 hrs by checkerboard assay; type: functional; conditions: isolate 4, 24 h
Staphylococcus aureus [41] = assay: Antibacterial activity against methicillin-sensitive Staphylococcus aureus ATCC 25923 at 0.56 mM after 24 hrs by time kill assay in presence of 0.85 mM of quercetin; type: functional, organism-based
Staphylococcus aureus [42] = assay: Antibacterial activity against Staphylococcus aureus ATCC 25923 after 24 hrs by checkerboard assay in presence of quercetin; type: functional
Staphylococcus aureus [43] = assay: Antibacterial activity against methicillin-resistant Staphylococcus aureus isolate 1 by disk diffusion assay; type: functional
Staphylococcus aureus [44] = assay: Antibacterial activity against methicillin-resistant Staphylococcus aureus isolate 8 after 24 hrs by checkerboard assay in presence of quercetin; type: functional
Staphylococcus aureus [45] = assay: Antibacterial activity against methicillin-resistant Staphylococcus aureus isolate 3 after 24 hrs by checkerboard assay; type: functional; conditions: isolate 3, 24 h
Staphylococcus aureus [46] = assay: Antibacterial activity against methicillin-resistant Staphylococcus aureus isolate 7 assessed as reduction of epigallocatechin gallate MIC after 24 hrs by checkerboard assay in presence of quercetin; type: functional; conditions: isolate 7, 24 h
Staphylococcus aureus [47] = assay: Antibacterial activity against vancomycin-intermediate resistant Staphylococcus aureus Mu50 assessed as log reduction of colony forming unit at 0.28 mM after 24 hrs; type: functional, organism-based
Staphylococcus aureus [48] = assay: Antibacterial activity against methicillin-resistant Staphylococcus aureus isolate 3 by disk diffusion assay; type: functional
Staphylococcus aureus [49] = assay: Antibacterial activity against methicillin-resistant Staphylococcus aureus isolate 9 by disk diffusion assay; type: functional
Staphylococcus aureus [50] = assay: Antibacterial activity against methicillin-resistant Staphylococcus aureus isolate 9 assessed as reduction of epigallocatechin gallate MIC after 24 hrs by checkerboard assay in presence of quercetin; type: functional; conditions: isolate 9, 24 h
Staphylococcus aureus [51] = assay: Antibacterial activity against methicillin-resistant Staphylococcus aureus isolate 1 assessed as reduction of epigallocatechin gallate MIC after 24 hrs by checkerboard assay in presence of quercetin; type: functional; conditions: isolate 1, 24 h
Staphylococcus aureus [52] = assay: Antibacterial activity against methicillin-resistant Staphylococcus aureus NCTC 12493 after 24 hrs by checkerboard assay in presence of quercetin; type: functional
Staphylococcus aureus [53] = assay: Antibacterial activity against vancomycin-intermediate resistant Staphylococcus aureus Mu50 at 0.56 mM after 4 hrs by time kill assay; type: functional, organism-based
Staphylococcus aureus [54] = assay: Antibacterial activity against methicillin-sensitive Staphylococcus aureus ATCC 25923 at 0.56 mM after 24 hrs by time kill assay; type: functional, organism-based
Staphylococcus aureus [55] = assay: Antibacterial activity against vancomycin-intermediate resistant Staphylococcus aureus Mu50 at 0.56 mM after 24 hrs by time kill assay; type: functional, organism-based
Staphylococcus aureus [56] = assay: Antibacterial activity against methicillin-resistant Staphylococcus aureus isolate 8 after 24 hrs by checkerboard assay; type: functional; conditions: isolate 8, 24 h
Staphylococcus aureus [57] = assay: Antibacterial activity against methicillin-resistant Staphylococcus aureus NCTC 12493 after 24 hrs by checkerboard assay; type: functional; conditions: NCTC 12493, 24 h
Staphylococcus aureus [58] = assay: Antibacterial activity against methicillin-resistant Staphylococcus aureus isolate 2 by disk diffusion assay; type: functional
Staphylococcus aureus [59] = assay: Antibacterial activity against methicillin-sensitive Staphylococcus aureus ATCC 25923 after 24 hrs by time kill assay; type: functional, organism-based
Staphylococcus aureus [60] = assay: Antibacterial activity against vancomycin-intermediate resistant Staphylococcus aureus Mu50 assessed as reduction of epigallocatechin gallate MIC after 24 hrs by checkerboard assay in presence of quercetin; type: functional; conditions: Mu50, 24 h
Staphylococcus aureus [61] = assay: Antibacterial activity against Staphylococcus aureus ATCC 25923 after 24 hrs by checkerboard assay; type: functional; conditions: ATCC 25923, 24 h
Staphylococcus aureus [62] = assay: Antibacterial activity against methicillin-resistant Staphylococcus aureus NCTC 12493 assessed as log reduction of colony forming unit at 0.28 mM after 4 hrs; type: functional, organism-based

## O=C(O[C@@H]1Cc2c(O)cc(O)cc2O[C@@H]1c1cc(O)c(O)c(O)c1)c1cc(O)c(O)c(O)c1 [EPIGALOCATECHIN GALLATE]
Staphylococcus aureus [1]
  Activity: Active
Staphylococcus aureus [2]
  fractional inhibitory concentration index (FICI): 0.31
Staphylococcus aureus [3]
  inhibition zone (IZ): >=19 mm
Staphylococcus aureus [4]
  fractional inhibitory concentration index (FICI): 0.31
Staphylococcus aureus [5]
  MIC: 70 µM
Staphylococcus aureus [6]
  fractional inhibitory concentration index (FICI): 0.31
Staphylococcus aureus [7]
  fractional inhibitory concentration index (FICI): 0.2
Staphylococcus aureus [8]
  MIC: 280 µM
Staphylococcus aureus [9]
  Activity: Active
Staphylococcus aureus [10]
  MIC: 280 µM
Staphylococcus aureus [11]
  inhibition zone (IZ): >=19 mm
Staphylococcus aureus [12]
  MIC: 4 µM
Staphylococcus aureus [13]
  Activity: Active
Staphylococcus aureus [14]
  MIC: 20 µM
Staphylococcus aureus [15]
  inhibition zone (IZ): >=19 mm
Staphylococcus aureus [16]
  Activity: Active
Staphylococcus aureus [17]
  inhibition zone (IZ): >=19 mm
Staphylococcus aureus [18]
  Activity: Active
Staphylococcus aureus [19]
  MIC: 70 µM
Staphylococcus aureus [20]
  MIC: 70 µM
Staphylococcus aureus [21]
  MIC: 70 µM
Staphylococcus aureus [22]
  Activity: Active
Staphylococcus aureus [23]
  Activity: Active
Staphylococcus aureus [24]
  MIC: 40 µM
Staphylococcus aureus [25]
  MIC: 280 µM
Staphylococcus aureus [26]
  Activity: Active
Staphylococcus aureus [27]
  Activity: Active
Staphylococcus aureus [28]
  fractional inhibitory concentration index (FICI): 0.28
Staphylococcus aureus [29]
  MIC: 280 µM
Staphylococcus aureus [30]
  inhibition zone (IZ): >=19 mm
Staphylococcus aureus [31]
  MIC: 280 µM
Staphylococcus aureus [32]
  MIC: 280 µM
Staphylococcus aureus [33]
  MIC: 280 µM
Staphylococcus aureus [34]
  fractional inhibitory concentration index (FICI): 0.31
Staphylococcus aureus [35]
  MIC: 70 µM
Staphylococcus aureus [36]
  fractional inhibitory concentration index (FICI): 0.28
Staphylococcus aureus [37]
  Activity: Active
Staphylococcus aureus [38]
  fractional inhibitory concentration index (FICI): 0.28
Staphylococcus aureus [39]
  fractional inhibitory concentration index (FICI): 0.09
Staphylococcus aureus [40]
  MIC: 280 µM
Staphylococcus aureus [41]
  Activity: Active
Staphylococcus aureus [42]
  fractional inhibitory concentration index (FICI): 0.07
Staphylococcus aureus [43]
  inhibition zone (IZ): 8 mm
Staphylococcus aureus [44]
  fractional inhibitory concentration index (FICI): 0.31
Staphylococcus aureus [45]
  MIC: 280 µM
Staphylococcus aureus [46]
  MIC: 70 µM
Staphylococcus aureus [47]
  Activity: Active
Staphylococcus aureus [48]
  inhibition zone (IZ): >=19 mm
Staphylococcus aureus [49]
  inhibition zone (IZ): >=19 mm
Staphylococcus aureus [50]
  MIC: 70 µM
Staphylococcus aureus [51]
  MIC: 70 µM
Staphylococcus aureus [52]
  fractional inhibitory concentration index (FICI): 0.06
Staphylococcus aureus [53]
  Activity: Active
Staphylococcus aureus [54]
  Activity: Active
Staphylococcus aureus [55]
  Activity: Active
Staphylococcus aureus [56]
  MIC: 280 µM
Staphylococcus aureus [57]
  MIC: 140 µM
Staphylococcus aureus [58]
  inhibition zone (IZ): >=19 mm
Staphylococcus aureus [59]
  Activity: Active
Staphylococcus aureus [60]
  MIC: 20 µM
Staphylococcus aureus [61]
  MIC: 560 µM
Staphylococcus aureus [62]
  Activity: Active
